Test results: US8099262B2, “Estimation of clinical cut-offs” (priority 2004, dated 2012)

Assays:
HIV [1] = format: in vivo
Excerpt: Further factors which may be taken into account when validating the model are the odds ratios determined using clinical cutoffs compared to those determined using biological cutoffs. These ratios represent the odds of being a responder in the group that is labeled resistant by the cutoffs divided by the odds of being a responder in the group that is labeled sensitive by the cutoffs. In this way it is possible to evaluate how well the cutoffs perform on a drug by drug basis. The further away that the odds ratio is from 1, the stronger the correlation between the resistance class and clinical outcome. The odds ratio as specified above yield numbers smaller than 1 as the odds of being a responder should be smaller in the higher resistance class. Put another way, the probability of response will decrease as the resistance increases. Additionally, if the odds ratio for the CCO is smaller than the odds ratio for the BCO, it can be concluded that the CCO is stronger correlated with clinical outcome and therefore gives a better prediction than the BCO.
A logistic regression model may be used to determine the odds ratio. The model used is the same as the logistic regression model described above except that the fold change in the model is replaced by the resistance class. The coefficient for the resistance class that is obtained from the model is the log (odds ratio). The advantage of using this model is that the odds ratio estimates can be adjusted for the baseline viral load and the cPSS score of the background regimen.
The columns headed CCO Odds Ratio and BCO Odds Ratio represent the odds of being a responder in the group that is labeled resistance by the cutoffs divided by the odds of being a responder in the group that is labeled sensitive by the cutoffs. For example, if there are four non-responders and one responder in the resistant group, and four responders and two non-responders in the sensitive group, the odds of being a responder in the resistant group is 1:4=0.25 and the odds of being a responder in the sensitive group is 4:2=2. […] The further away that the odds ratio is from 1, the stronger the correlation between the resistance class and clinical outcome.
The separation in groups (resistance/sensitive) can be done based on clinical cutoffs or biological cutoffs. This means that odds ratios based on clinical cutoffs (CCO) and odds ratios based on biological cutoffs (BCO) can be compared. If the odds ratio for the CCO is smaller than the odds ratio for the BCO, it can be concluded that the CCO gives a better prediction than the BCO.
In practice, a logistic regression model is used to determine the odds ratio. The model used is similar to logistic regression model described earlier except that the fold change in the model is replaced by the resistance class. The coefficient for the resistance class that is obtained from the model is the log (odds ratio). The advantage of using this model is that the odds ratio estimates can be adjusted for the baseline viral load and the cPSS score of the background regimen. […] In this case, a larger odds ratio indicates a stronger correlation with clinical outcome.

HIV [2] = test: Logistic regression model of probability of success/failure as a function of baseline fold change resistance (clinical cut-offs); format: in vivo
Excerpt: In such a method, Prob of success is preferably calculated by performing a logistic regression analysis using data from a clinical response dataset, wherein Prob of success is modelled according to the following equation: […]
The clinical outcome results (drop in viral load and response rate) were modelled as a function of baseline fold change (FC) as determined by virtual phenotype (see WO01/79540 and WO02/33402; also http://www.vircolab.com). The models applied were linear regression, logistic regression, and a classification tree. These models also took into account effects of the concomitant HIV drugs (PSS), baseline viral load (Baseline Log(V1)i) and, optionally, treatment history in order to avoid bias introduced by imbalances of important characteristics. From the models, a prediction of clinical outcome could be made at different levels of the baseline fold change resistance.
In the logistic regression, the proposed equation was the following: […]
However, by binning the viral load into successes and failures, part of the information of the continuous variable viral load is lost. Estimates are also corrected for covariates as for linear regression.
The maximum effect was defined as the treatment effect at fold change 1, and the minimum effect was defined as the treatment effect at a very high fold change (i.e. when the curve reached a plateau). The effect range was then the difference between the maximum effect and the minimum effect.
The lower and higher cutoffs are defined as the fold change associated with an expected 20% and 80% decrease respectively of the reference activity of the drug within the regimen.

[3] = Definition 2, Subgroup 1: PSS = 2, baseline Log (VL) = 4
[4] = Definition 2, Subgroup 2: PSS = 0, baseline Log (VL) = 4
[5] = Definition 2, Subgroup 3: PSS = 2, baseline Log (VL) = 5
[6] = Definition 3, Subgroup 1: PSS = 2, baseline Log (VL) = 4
[7] = Definition 3, Subgroup 2: PSS = 0, baseline Log (VL) = 4
[8] = Definition 3, Subgroup 3: PSS = 2, baseline Log (VL) = 5

CC(C)OC(=O)OCOP(=O)(CO[C@H](C)Cn1cnc2c(N)ncnc21)OCOC(=O)OC(C)C.O=C(O)/C=C/C(=O)O [TDF]
Test Data BCO Odds Ratio (HIV [1]; test data, biological cutoffs): 0.570
Test Data CCO Odds Ratio (HIV [1]; test data, clinical cutoffs): 0.228
Validation Data CCO Odds Ratio (HIV [1]; validation data, clinical cutoffs): 0.226
Logistic Regression Higher CO (HIV [2]; [3]): 3.81
Logistic Regression Lower CO (HIV [2]; [3]): 1.2
Logistic Regression Higher CO (HIV [2]; [4]): 3.36
Logistic Regression Lower CO (HIV [2]; [4]): 1.16
Logistic Regression Higher CO (HIV [2]; [5]): 3.4
Logistic Regression Lower CO (HIV [2]; [5]): 1.17
Logistic Regression Lower CO (HIV [2]; Definition 3, Overall): 1.2
Logistic Regression Higher CO (HIV [2]; [6]): 3.81
Logistic Regression Lower CO (HIV [2]; [6]): 1.2
Logistic Regression Higher CO (HIV [2]; [7]): 3.36
Logistic Regression Lower CO (HIV [2]; [7]): 1.2
Logistic Regression Higher CO (HIV [2]; [8]): 3.4
Logistic Regression Lower CO (HIV [2]; [8]): 1.2
